Laboratory results taken from ChEMBL document CHEMBL4004838, “Design and synthesis of novel phenyl -1, 4-beta-carboline-hybrid molecules as potential anticancer agents” (Eur J Med Chem, 2017).

system: SK-MEL-5; test: Growth inhibition of human SK-MEL-5 cells assessed as cell growth at 10^-5 M incubated for 48 hrs by sulforhodamine B assay relative to control; format: functional; details: SK-MEL-5, 48 h, read-out: Activity

Row | SMILES | growth at 10 µM [%]
1 | Cc1n[nH]c2c1C(c1ccc(C3NCCc4c3[nH]c3ccccc43)cc1)C(C#N)=C(N)O2 (stereo not given) | 89.4

system: RXF 393; test: Growth inhibition of human RXF393 cells assessed as cell growth at 10^-5 M incubated for 48 hrs by sulforhodamine B assay relative to control; format: functional; details: RXF 393, 48 h, read-out: Activity

Row | SMILES | growth at 10 µM [%]
2 | Cc1n[nH]c2c1C(c1ccc(C3NCCc4c3[nH]c3ccccc43)cc1)C(C#N)=C(N)O2 (stereo not given) | 99.2

system: SW-620; test: Growth inhibition of human SW620 cells assessed as cell growth at 10^-5 M incubated for 48 hrs by sulforhodamine B assay relative to control; format: functional; details: SW-620, 48 h, read-out: Activity

Row | SMILES | growth at 10 µM [%]
3 | Cc1n[nH]c2c1C(c1ccc(C3NCCc4c3[nH]c3ccccc43)cc1)C(C#N)=C(N)O2 (stereo not given) | 89.9

system: SK-OV-3; test: Growth inhibition of human SKOV3 cells assessed as cell growth at 10^-5 M incubated for 48 hrs by sulforhodamine B assay relative to control; format: functional; details: SK-OV-3, 48 h, read-out: Activity

Row | SMILES | growth at 10 µM [%]
4 | Cc1n[nH]c2c1C(c1ccc(C3NCCc4c3[nH]c3ccccc43)cc1)C(C#N)=C(N)O2 (stereo not given) | 92

system: SK-MEL-28; test: Growth inhibition of human SK-MEL-28 cells assessed as cell growth at 10^-5 M incubated for 48 hrs by sulforhodamine B assay relative to control; format: functional; details: SK-MEL-28, 48 h, read-out: Activity

Row | SMILES | growth at 10 µM [%]
5 | Cc1n[nH]c2c1C(c1ccc(C3NCCc4c3[nH]c3ccccc43)cc1)C(C#N)=C(N)O2 (stereo not given) | 97.1

system: PC-3; test: Growth inhibition of human PC3 cells assessed as cell growth at 10^-5 M incubated for 48 hrs by sulforhodamine B assay relative to control; format: functional; details: PC-3, 48 h, read-out: Activity

Row | SMILES | growth at 10 µM [%]
6 | Cc1n[nH]c2c1C(c1ccc(C3NCCc4c3[nH]c3ccccc43)cc1)C(C#N)=C(N)O2 (stereo not given) | 72.3

system: NCI-H522; test: Growth inhibition of human NCI-H522 cells assessed as cell growth at 10^-5 M incubated for 48 hrs by sulforhodamine B assay relative to control; format: functional; details: NCI-H522, 48 h, read-out: Activity

Row | SMILES | growth at 10 µM [%]
7 | Cc1n[nH]c2c1C(c1ccc(C3NCCc4c3[nH]c3ccccc43)cc1)C(C#N)=C(N)O2 (stereo not given) | 81.8

system: CAKI-1; test: Growth inhibition of human Caki1 cells assessed as cell growth at 10^-5 M incubated for 48 hrs by sulforhodamine B assay relative to control; format: functional; details: CAKI-1, 48 h, read-out: Activity

Row | SMILES | growth at 10 µM [%]
8 | Cc1n[nH]c2c1C(c1ccc(C3NCCc4c3[nH]c3ccccc43)cc1)C(C#N)=C(N)O2 (stereo not given) | 63.2

system: A549; test: Growth inhibition of human A549/ATCC cells assessed as cell growth at 10^-5 M incubated for 48 hrs by sulforhodamine B assay relative to control; format: functional; details: A549, 48 h, read-out: Activity

Row | SMILES | growth at 10 µM [%]
9 | Cc1n[nH]c2c1C(c1ccc(C3NCCc4c3[nH]c3ccccc43)cc1)C(C#N)=C(N)O2 (stereo not given) | 84.9

system: M14; test: Growth inhibition of human M14 cells assessed as cell growth at 10^-5 M incubated for 48 hrs by sulforhodamine B assay relative to control; format: functional; details: M14, 48 h, read-out: Activity

Row | SMILES | growth at 10 µM [%]
10 | Cc1n[nH]c2c1C(c1ccc(C3NCCc4c3[nH]c3ccccc43)cc1)C(C#N)=C(N)O2 (stereo not given) | 86.7

system: KM12; test: Growth inhibition of human KM12 cells assessed as cell growth at 10^-5 M incubated for 48 hrs by sulforhodamine B assay relative to control; format: functional; details: KM12, 48 h, read-out: Activity

Row | SMILES | growth at 10 µM [%]
11 | Cc1n[nH]c2c1C(c1ccc(C3NCCc4c3[nH]c3ccccc43)cc1)C(C#N)=C(N)O2 (stereo not given) | 91.9

system: SNB-19; test: Growth inhibition of human SNB19 cells assessed as cell growth at 10^-5 M incubated for 48 hrs by sulforhodamine B assay relative to control; format: functional; details: SNB-19, 48 h, read-out: Activity

Row | SMILES | growth at 10 µM [%]
12 | Cc1n[nH]c2c1C(c1ccc(C3NCCc4c3[nH]c3ccccc43)cc1)C(C#N)=C(N)O2 (stereo not given) | 94.2

system: SF-268; test: Growth inhibition of human SF268 cells assessed as cell growth at 10^-5 M incubated for 48 hrs by sulforhodamine B assay relative to control; format: functional; details: SF-268, 48 h, read-out: Activity

Row | SMILES | growth at 10 µM [%]
13 | Cc1n[nH]c2c1C(c1ccc(C3NCCc4c3[nH]c3ccccc43)cc1)C(C#N)=C(N)O2 (stereo not given) | 92.9

system: HOP-62; test: Growth inhibition of human HOP62 cells assessed as cell growth at 10^-5 M incubated for 48 hrs by sulforhodamine B assay relative to control; format: functional; details: HOP-62, 48 h, read-out: Activity

Row | SMILES | growth at 10 µM [%]
14 | Cc1n[nH]c2c1C(c1ccc(C3NCCc4c3[nH]c3ccccc43)cc1)C(C#N)=C(N)O2 (stereo not given) | 83

system: MDA-MB-231; test: Growth inhibition of human MDA-MB-231 cells assessed as cell growth at 10^-5 M incubated for 48 hrs by sulforhodamine B assay relative to control; format: functional; details: MDA-MB-231, 48 h, read-out: Activity

Row | SMILES | growth at 10 µM [%]
15 | Cc1n[nH]c2c1C(c1ccc(C3NCCc4c3[nH]c3ccccc43)cc1)C(C#N)=C(N)O2 (stereo not given) | 77.6

system: EKVX; test: Growth inhibition of human EKVX cells assessed as cell growth at 10^-5 M incubated for 48 hrs by sulforhodamine B assay relative to control; format: functional; details: read-out: Activity

Row | SMILES | growth at 10 µM [%]
16 | Cc1n[nH]c2c1C(c1ccc(C3NCCc4c3[nH]c3ccccc43)cc1)C(C#N)=C(N)O2 (stereo not given) | 83.6

system: A498; test: Growth inhibition of human A498 cells assessed as cell growth at 10^-5 M incubated for 48 hrs by sulforhodamine B assay relative to control; format: functional; details: A498, 48 h, read-out: Activity

Row | SMILES | growth at 10 µM [%]
17 | Cc1n[nH]c2c1C(c1ccc(C3NCCc4c3[nH]c3ccccc43)cc1)C(C#N)=C(N)O2 (stereo not given) | 67.1

system: MCF7; test: Growth inhibition of human MCF7 cells assessed as cell growth at 10^-5 M incubated for 48 hrs by sulforhodamine B assay relative to control; format: functional; details: MCF7, 48 h, read-out: Activity

Row | SMILES | growth at 10 µM [%]
18 | Cc1n[nH]c2c1C(c1ccc(C3NCCc4c3[nH]c3ccccc43)cc1)C(C#N)=C(N)O2 (stereo not given) | 78.8

system: HCT-116; test: Growth inhibition of human HCT116 cells assessed as cell growth at 10^-5 M incubated for 48 hrs by sulforhodamine B assay relative to control; format: functional; details: HCT-116, 48 h, read-out: Activity

Row | SMILES | growth at 10 µM [%]
19 | Cc1n[nH]c2c1C(c1ccc(C3NCCc4c3[nH]c3ccccc43)cc1)C(C#N)=C(N)O2 (stereo not given) | 76.5

system: SF-539; test: Growth inhibition of human SF539 cells assessed as cell growth at 10^-5 M incubated for 48 hrs by sulforhodamine B assay relative to control; format: functional; details: SF-539, 48 h, read-out: Activity

Row | SMILES | growth at 10 µM [%]
20 | Cc1n[nH]c2c1C(c1ccc(C3NCCc4c3[nH]c3ccccc43)cc1)C(C#N)=C(N)O2 (stereo not given) | 92

system: SF-295; test: Growth inhibition of human SF295 cells assessed as cell growth at 10^-5 M incubated for 48 hrs by sulforhodamine B assay relative to control; format: functional; details: SF-295, 48 h, read-out: Activity

Row | SMILES | growth at 10 µM [%]
21 | Cc1n[nH]c2c1C(c1ccc(C3NCCc4c3[nH]c3ccccc43)cc1)C(C#N)=C(N)O2 (stereo not given) | 86.9

system: NCI-H460; test: Growth inhibition of human NCI-H460 cells assessed as cell growth at 10^-5 M incubated for 48 hrs by sulforhodamine B assay relative to control; format: functional; details: NCI-H460, 48 h, read-out: Activity

Row | SMILES | growth at 10 µM [%]
22 | Cc1n[nH]c2c1C(c1ccc(C3NCCc4c3[nH]c3ccccc43)cc1)C(C#N)=C(N)O2 (stereo not given) | 91.8

system: OVCAR-8; test: Growth inhibition of human OVCAR8 cells assessed as cell growth at 10^-5 M incubated for 48 hrs by sulforhodamine B assay relative to control; format: functional; details: OVCAR-8, 48 h, read-out: Activity

Row | SMILES | growth at 10 µM [%]
23 | Cc1n[nH]c2c1C(c1ccc(C3NCCc4c3[nH]c3ccccc43)cc1)C(C#N)=C(N)O2 (stereo not given) | 104

system: SN12C; test: Growth inhibition of human SN12C cells assessed as cell growth at 10^-5 M incubated for 48 hrs by sulforhodamine B assay relative to control; format: functional; details: read-out: Activity

Row | SMILES | growth at 10 µM [%]
24 | Cc1n[nH]c2c1C(c1ccc(C3NCCc4c3[nH]c3ccccc43)cc1)C(C#N)=C(N)O2 (stereo not given) | 87

system: RPMI-8226; test: Growth inhibition of human RPMI8226 cells assessed as cell growth at 10^-5 M incubated for 48 hrs by sulforhodamine B assay relative to control; format: functional; details: RPMI-8226, 48 h, read-out: Activity

Row | SMILES | growth at 10 µM [%]
25 | Cc1n[nH]c2c1C(c1ccc(C3NCCc4c3[nH]c3ccccc43)cc1)C(C#N)=C(N)O2 (stereo not given) | 72.1
